Test results taken from patent publication US9469878B2, “Methods of treating cancer comprising targeting NQO1” (The Board of Regents of the University of Texas System, priority 2010, dated 2016).
“And” between values parts separate entries of the source, which are not always exact repeats. Identical values can stand only once.

Legend:
[1] = system: orthotopic lung tumors, *2/*2 or *3/*3; test: Survival of mice bearing orthotopic lung tumors; assay type: in vivo; conditions: *2/*2 or *3/*3 tumors, β-lap-HPβ-CD intravenously, 5 doses every other day
Procedure: FIG. 16 depicts NQO1 levels predict response to NQO1 bioactivatable therapies. In (a) LD50 responses of non-small cell lung cancer (NSCLC) cell lines treated with β-Lap for 2 h and harvester 7 days later. LD50 responses were plotted as a function of NQO1 enzymatic levels. The notations, *1/*1 and *2/*2 represent the NQO1 status of each cell line as homozygous wild type (*1/*1) or homozygous polymorphic (*2/*2) genotypes. Note that all heterozygote cells containing one wild-type allele (*1) are wild-type, phenotypically, for NQO1 expression, such that only homozygous *2/*2 or 3/3 are considered non-responsive to NQO1 bioactivatable drugs. Note the high resistance of H596 and H2862 cell lines to β-lapachone compared to all of the wild-type *1/*1 cells with LD50 values less than 5 μM. Note also that *3/*3 SNPs in NQO1 are far more rare than *2/*2 single point mutations in NQO1. In (b), Kaplan-Meier survival curve of mice bearing orthotopic lung tumors implanted with *1/*1 A549 cells. Mice were treated intravenously (5 doses every other day) with β-lap-HPβ-CD or vehicle alone (HPβ-CD). Similar studies with *2/*2 or *3/*3 tumors were performed and these tumors were non-responsive to β-lapachone or other NQO1 bioactivatable drug therapies.

PARP1 in 231-NQ+ cells = test: PAR formation (PARP1 hyperactivation), Western blot; assay type: cell-based, human; conditions: after 2 μM β-lap
H596/NSCLC = test: β-lapachone lethality in NQO1 genotyped cancer cells; assay type: cell-based, human; conditions: NQO1 genotype *2/*2, 2 h exposure
Procedure: (§1) LD50 responses were plotted as a function of NQO1 enzymatic levels. The notations, *1/*1 and *2/*2 represent the NQO1 status of each cell line as homozygous wild type (*1/*1) or homozygous polymorphic (*2/*2) genotypes. […] In (b), Kaplan-Meier survival curve of mice bearing orthotopic lung tumors implanted with *1/*1 A549 cells. Mice were treated intravenously (5 doses every other day) with β-lap-HPβ-CD or vehicle alone (HPβ-CD).
(§2) Cell lines, mostly from a 5-panel nonsmall cell lung cancer panel from the UT Southwestern SPORE, were assessed for NQO1 polymorphism status and then monitored for NQO1 enzyme assays using β-lapachone or the standard menadione substrates. […] NQO1*2/*2 and *3/*3 polymorphisms were detected from NQO1 *1/*1 wild-type sequences by PCR-RFLP. Genomic DNA was extracted from the cells using Qiagen spin columns. Using previously described oligonucleotide primers, PCR products underwent gel electrophoresis. Final genotyping was determined based on the size and pattern of separated bands diagnostic for *1/*1 (wild-type), or polymorphic *2/*2 or *3/*3 NQO1 polymorphisms.

H2882/NSCLC = test: as above; assay type: cell-based, human
Procedure: as §1, §2

PARP-1 in PC-3 cells = test: PAR formation (PARP-1 hyperactivation), Western blot; assay type: cell-based, human
Procedure: Whole-cell extracts were prepared, proteins separated by SDSPAGE, and Western blots developed using SuperSignal® West Pico Chemiluminescent substrate (Thermo Scientific, Rockford, Ill.), and exposed using Autoradiography Film (Denville Scientific Inc., Metuchen, N.J.). Both PAR (BD Pharmingen, San Jose, Calif.) and γH2AX (Upstate, Billerica, Mass.) antibodies were used at 1:2000 and 1:1000 dilutions, respectively. […] or α-tubulin levels were used as loading control.

PC-3 cells = test: Alkaline comet assay; assay type: cell-based, human; conditions: PC-3 cells after exposure to 4 μM β-lap
Procedure: DNA lesions, including total base damage, DSBs and SSBs, versus DSBs were assessed using single-cell gel electrophoretic comet assays under alkaline or neutral conditions, respectively (TREVIGEN, Gaithersburg, Md.). Slides were stained with SYBR Green and visualized using a Nikon Eclipse TE2000-E fluorescence microscope (Melville, N.Y.). Digital photomicrographs were taken and comet tail lengths quantified using NIH Image J software. Each datum point represents an average of 100 cells±SE, and data are representative of experiments performed in triplicate.

[2] = biological target: T1, NQO1 in 231-NQ+ cell extracts (Homo sapiens, UniProt P15559); test: Oxygen consumption in S9 cell extracts; assay type: biochemical; conditions: in 4 h, 231-NQ+ versus 231-NQ− cell extracts
T1 construct: expressed in transfected cells; host or cells: MDA-MB-231 (231-NQ+), S9 supernatant

[3] = system: Human (shown) or mouse rbs; test: Hemolysis of red blood cells; assay type: cell-based; conditions: rbs incubated with HPβCD alone, HPβCD-β-lap, or β-lap alone in DMSO
Procedure: Human (shown) or mouse rbs were incubated with HPβCD alone or HPβCD-β-lap, or β-lap alone in DMSO.

NQO1 [4] = test: NQO1 enzyme assays using β-lapachone or the standard menadione substrates; assay type: biochemical, human; conditions: β-lapachone as substrate, HCC44 *1/*2
Procedure: (§3) S9 Supernatants were prepared from cells in mid-log to late log phase growth. […] The cell suspensions were sonicated on ice four times, using 10-s pulses, and then centrifuged at 14,000×g for 20 min. The S9 supernatants were aliquoted into microcentrifuge tubes and stored at −80° C. until used. A 1× protease inhibitor cocktail was added to prevent enzyme activity degradation. […] Menadione was used as the electron acceptor. NADH was used as the electron donor.
(§4) NQO1 activity was measured using NADH (200 μM) as the immediate electron donor and menadione (10 μM) as the intermediate electron acceptor. […] Biochem. Biophys. […] NADH: cytochrome b5 reductase was measured using NADH (200 μM) as the electron donor, and […] was measured using NADPH (200 μM) as electron donor (45) in a Beckman DU 640 spectrophotometer (Beckman Coulter, Fullerton, Calif.). Reactions were carried out at 37° C. and were initiated by the addition of S9 supernatants. Varying amounts of supernatants, from 10 to 40 μL, were used to ensure linearity of rates with protein concentration. […] Results shown are the average enzyme activity for three separate cell extractions±S.D. or both values from duplicate experiments.
as §2

NQO1 [5] = biological target: T2, NQO1 (Homo sapiens, UniProt P15559, R139W); test: as above; assay type: biochemical; conditions: β-lapachone as substrate
T2 construct: S9 Supernatants were prepared from cells in mid-log to late log phase growth; endogenous in cells; host or cells: cancer cell lines, mostly from a non-small cell lung cancer panel (e.g. Calu-3); S9 supernatants
Procedure: as §3, §4, §2

NQO1+ human cancer cells = conditions: cited from earlier work

T2 sequence (P15559 whole entry R139W): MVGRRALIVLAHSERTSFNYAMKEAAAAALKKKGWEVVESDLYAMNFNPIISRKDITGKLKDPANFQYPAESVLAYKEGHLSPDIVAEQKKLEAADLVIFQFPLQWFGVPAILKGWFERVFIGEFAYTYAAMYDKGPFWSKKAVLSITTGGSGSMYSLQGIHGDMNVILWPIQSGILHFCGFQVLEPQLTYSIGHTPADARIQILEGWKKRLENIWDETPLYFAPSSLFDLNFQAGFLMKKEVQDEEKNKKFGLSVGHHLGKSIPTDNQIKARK
T1 sequence (P15559 whole entry): as the sequence (P15559 whole entry R139W) above, with W139R counted along it

## CC1(C)CCC2=C(O1)c1ccccc1C(=O)C2=O [β-Lap, 3,4-dihydro-2,2-dimethyl-2H-naphtho[1,2-b]pyran-5,6-dione]
[1]
  Response of tumors: non-responsive
PARP1 in 231-NQ+ cells
  Time of peak PAR formation: 30 min
H596/NSCLC
  β-Lap Lethality LD50: >20 µM and >10 µM
H2882/NSCLC; *2/*2, 2 h, + dicoumarol (40 μM)
  LD50 + DIC: >40 µM
H2882/NSCLC; NQO1 genotype *2/*2, 2 h exposure
  β-Lap Lethality LD50: >20 µM
PARP-1 in PC-3 cells; 1 Gy+3 μM β-lap, PC-3 cells, at 60 mins, no apparent levels after each agent alone
  PAR formation after combined treatment: dramatic PAR formation
PARP-1 in PC-3 cells; β-lap-exposed PC-3 cells, blocked by dicoumarol
  Time to significant accumulation of PAR: 10 to 20 min
PC-3 cells
  IR dose equivalent to DNA lesions by alkaline assays: 20 Gy
[2]
  Increase of O2 consumption: ~40 fold
[3]
  Hemolysis: hemolysis by HPβCD and not β-lapachone
NQO1 [4]
  NQO1 activity, β-Lap: 879 ± 14 nmol/min/µg
NQO1 [5]; Calu-3/NSCLC *3/*3
  NQO1 activity, β-Lap: 243 ± 2 nmol/min/µg
NQO1 [5]; H2009/NSCLC *3/*3
  NQO1 activity, β-Lap: 120 ± 3 nmol/min/µg
NQO1 [5]; HCC1171/NSCLC *3/*3
  NQO1 activity, β-Lap: 369 ± 9 nmol/min/µg
NQO1 [5]; T47D/BreastCancer *3/*3
  NQO1 activity, β-Lap: 138 ± 3 nmol/min/µg
NQO1+ human cancer cells; 1-2 μM treatments for 2-4 h
  Lethality: not lethal
NQO1+ human cancer cells; 2-3 μM for 2-4 h
  Cell death responses (TUNEL staining): > 90%
